Data taken from publication PMC11148045, “Structural basis for recognition of 26RFa by the pyroglutamylated RFamide peptide receptor” (Cell Discovery, 2024).
No end group written: not given here.

Assays:
QRFPR = details: cited from earlier work
Text: cDNA encoding the precursor or orthologue of 26RFa is detected in vertebrates, from fish[16], and phasianidae, to mammals. In humans, 26RFa and its N-terminal extended mature peptide 43RFa are extracted from the human brain, and mRNA of QRFPR is detected in the hypothalamus, vestibular nuclei, and other areas of the central nervous system. QRFPR is also detected in some peripheral organs[18],[19]. Both 26RFa and 43RFa are endogenous ligands for QRFPR (GPR103)[4],[18]. The amino acid sequences of 26RFa are conserved among mammalian species, with 26RFa from rats being slightly mor ... || Considerable efforts have been dedicated to elucidating the recognition mechanism of 26RFa by QRFPR. […] This segment served as a molecular scaffold for the development of low molecular weight peptides with enhanced potency and increased stability[21],[28]. […] Globally, the 26RFa segment (Gly20–Phe24) leans to TM2, but is far from TMs 5–7, leaving a large portion of unoccupied space lined by TMs 5–7 (Fig. 3a). Two glycines (Gly20, Gly21) are compactly packed into a crevice composed of residues on ECL1, ECL2, and the N-terminus (Fig. 3a). They moderately impact 26RFa activity, as substit ... || (+ 2 further places)

KISS1R (WT) = molecular target: T1, KISS1R (WT) (Homo sapiens, UniProt Q969F8); test: KP-10-induced calcium mobilization, wild-type receptor; assay type: cell-based; details: HEK293, Fluo-4, mean ± S.E.M., n ≥ 3
T1 construct: expressed in transfected cells; host or cells: HEK293, transient transfection by electroporation
T1 sequence (Q969F8 whole entry, species assumed): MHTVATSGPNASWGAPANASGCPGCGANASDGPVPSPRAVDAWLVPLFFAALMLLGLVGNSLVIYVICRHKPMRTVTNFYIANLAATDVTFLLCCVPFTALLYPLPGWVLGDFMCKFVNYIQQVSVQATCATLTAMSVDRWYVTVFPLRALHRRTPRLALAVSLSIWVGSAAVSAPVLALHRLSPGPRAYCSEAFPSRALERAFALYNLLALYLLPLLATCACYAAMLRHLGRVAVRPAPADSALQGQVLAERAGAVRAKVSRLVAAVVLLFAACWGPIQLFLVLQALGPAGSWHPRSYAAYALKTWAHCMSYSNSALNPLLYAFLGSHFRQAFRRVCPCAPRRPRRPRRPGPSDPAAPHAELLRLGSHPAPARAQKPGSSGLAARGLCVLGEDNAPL

KISS1R mutants = molecular target: T2, KISS1R mutants (Homo sapiens, UniProt Q969F8, E193A/H309A/Q122A); test: KP-10-induced calcium mobilization, receptor mutants; assay type: cell-based; details: HEK293, Fluo-4, mean ± S.E.M., n ≥ 3
T2 construct: expressed in transfected cells; host or cells: HEK293, transient transfection by electroporation
T2 sequence (Q969F8 whole entry Q122A/E193A/H309A): as the sequence (Q969F8 whole entry, species assumed) above, with Q122A, E193A, H309A counted along it

NPY1R and NPY4R = details: cited from earlier work; for role of hydrogen bond of Tyr36 with Q^5.46 in activity: NPY1R and NPY4R
Text: Specifically, Arg25 and Arg35 in 26RFa and NPY/PP are exposed to a conserved polar environment that includes residues E^45.52, T^5.39, and D/E^6.59 in QRFPR and NPYRs. However, subtle differences exist in the special binding interactions between these arginines and conserved polar residues (Fig. 4d–f). Side chains of Arg35 in NPY/PP form a conserved salt bridge with D^6.59 and a hydrogen bond with T^5.39 (NPY1R and NPY4R) or a salt bridge with E^45.52 (NPY2R) (Fig. 4e, f). In 26RFa, Arg25 retains its salt bridge with E203^45.52 but fails to build a salt bridge with E297^6.59 (Fig. 3b). It is p ... || Phe26 in 26RFa and Tyr36 in NPY/PP show distinct binding characteristics for QRFRP and NPYRs, respectively. […] (Fig. 4e). However, in NPY2R, this hydrogen bond is absent due to the substitution of glutamine with leucine at position 5.46, which lacks a hydrogen bond donor (Fig. 4c, f). Similarly, QRFPR also has a leucine at position 5.46, which cannot form a corresponding hydrogen bond with Phe26 in 26RFa. Furthermore, in contrast to the notable impact of Q^5.46 on the NP ...

PrRPR (WT) = molecular target: T3, PrRPR (WT) (Homo sapiens, UniProt P49683); test: PrRP-20-induced calcium mobilization, wild-type receptor; assay type: cell-based; details: HEK293, Fluo-4, mean ± S.E.M., n ≥ 3
T3 construct: expressed in transfected cells; host or cells: HEK293, transient transfection by electroporation
T3 sequence (P49683 whole entry, species assumed): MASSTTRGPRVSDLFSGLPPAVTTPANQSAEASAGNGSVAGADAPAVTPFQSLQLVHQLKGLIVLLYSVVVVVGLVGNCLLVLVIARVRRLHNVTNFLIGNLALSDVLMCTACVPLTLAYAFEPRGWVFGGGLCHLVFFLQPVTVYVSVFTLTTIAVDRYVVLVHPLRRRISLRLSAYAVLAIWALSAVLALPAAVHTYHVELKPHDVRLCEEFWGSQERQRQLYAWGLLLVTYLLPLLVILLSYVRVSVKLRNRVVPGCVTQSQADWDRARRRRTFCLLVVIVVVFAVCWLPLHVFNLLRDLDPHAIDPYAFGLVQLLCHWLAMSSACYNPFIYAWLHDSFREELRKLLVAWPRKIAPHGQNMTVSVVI
Procedure: (§1) The gene encoding the WT QRFPR, PrPRR, KISS1R, NPFF1R, or NPFF2R was subcloned into the pcDNA3.0 vector with the addition of an N-terminal HA tag. All of the mutations used for functional studies were generated by QuickChange PCR and verified by DNA sequencing.
(§2) HEK293 cells were obtained from ATCC (Manassas, VA, USA) and cultured in DMEM supplemented with 10% (v/v) FBS, 100 mg/L penicillin, and 100 mg/L streptomycin in 5% CO2 at 37 °C. For transient transfection, ~2.5 × 10^6 cells were mixed with 2 µg plasmids in 200 µL transfection buffer, and electroporation was carried out with a Scientz-2C electroporation apparatus (Scientz Biotech, Ningbo, China). The experiments were carried out 24 h after transfection.
For QRFPR, PrRPR, and KISS1R, HEK293 cells transfected with WT receptor or its mutants were seeded at a density of 4 × 10^4 per well into 96-well culture plates and incubated for 24 h at 37 °C in 5% CO2. […] After washing, cells were added with 50 μL HBSS and incubated at room temperature for 10 min, then 25 μL agonist buffer was dispensed into the well using a FlexStation III microplate reader (Molecular Devices), and intracellular calcium change was recorded at an excitation wavelength of 485 nm and an emission wavelength of 525 nm. EC50 and Emax values for each curve were calculated by Prism 8.0 software (GraphPad Software).

PrRPR mutants = molecular target: T4, PrRPR mutants (Homo sapiens, UniProt P49683, D302A/E213A/H321A/Q141A); test: PrRP-20-induced calcium mobilization, receptor mutants; assay type: cell-based; details: HEK293, Fluo-4, mean ± S.E.M., n ≥ 3
T4 construct: expressed in transfected cells; host or cells: HEK293, transient transfection by electroporation
T4 sequence (P49683 1-370 Q141A/E213A/D302A/H321A): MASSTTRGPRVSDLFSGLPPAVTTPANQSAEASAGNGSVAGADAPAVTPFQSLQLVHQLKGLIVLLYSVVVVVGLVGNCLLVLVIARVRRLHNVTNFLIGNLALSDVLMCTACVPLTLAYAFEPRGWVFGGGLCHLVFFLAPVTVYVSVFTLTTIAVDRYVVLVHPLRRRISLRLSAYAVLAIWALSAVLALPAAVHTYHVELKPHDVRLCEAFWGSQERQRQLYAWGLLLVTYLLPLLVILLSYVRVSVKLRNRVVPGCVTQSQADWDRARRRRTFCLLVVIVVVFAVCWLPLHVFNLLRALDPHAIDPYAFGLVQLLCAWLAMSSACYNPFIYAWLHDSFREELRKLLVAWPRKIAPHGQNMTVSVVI
Procedure: as §1, §2
For QRFPR, PrRPR, and KISS1R, HEK293 cells transfected with WT receptor or its mutants were seeded at a density of 4 × 10^4 per well into 96-well culture plates and incubated for 24 h at 37 °C in 5% CO2. For NPFF1R and NPFF2R, plasmids were transfected into HEK293 cells stably expressing Gα16. On the next day, cells were incubated with 2 μmol/L Fluo-4 AM in HBSS supplemented with 5.6 mmol/L D-glucose and 250 μmol/L sulfinpyrazone at 37 °C for 45 min. After washing, cells were added with 50 μL HBSS and incubated at room temperature for 10 min, then 25 μL agonist buffer was dispensed into the well using a FlexStation III microplate reader (Molecular Devices), and intracellular calcium change was recorded at an excitation wavelength of 485 nm and an emission wavelength of 525 nm. EC50 and Emax values for each curve were calculated by Prism 8.0 software (GraphPad Software).

26RFa (1–18): N-terminal segment of native 26RFa lacking the C-terminal octapeptide (QDEGSEATGFLPAAGEKT; QRF-amide; UniProt P83859 91-108, looked up, fragment)
ability to activate the receptor (QRFPR; 26RFa (1–18), lacks the C-terminal octapeptide): loses its ability to activate the receptor

26RFa from rats: 26RFa from rats; rat 26RFa (GenScript) used for the complex
potency, rat vs human 26RFa (QRFPR; calcium mobilization): slightly more potent than that from humans

CC(C)C[C@H](NC(=O)CNC(=O)[C@H](Cc1ccccc1)NC(=O)[C@H](CO)NC(=O)[C@H](CC(N)=O)NC(=O)[C@H](Cc1c[nH]c2ccccc12)NC(=O)[C@H](CC(N)=O)NC(=O)[C@@H](N)Cc1ccc(O)cc1)C(=O)N[C@@H](CCCNC(=N)N)C(=O)N[C@@H](Cc1ccccc1)C(N)=O [KP-10]
EC50 (KISS1R (WT)): 4.27 nM | Emax (KISS1R (WT)): 100 ± 1.2% | Emax (KISS1R mutants; HEK293, KISS1R E193^45.52A): 126 ± 6.2% | Emax (KISS1R mutants; HEK293, KISS1R H309^7.39A): 89.6 ± 1% | Emax (KISS1R mutants; HEK293, KISS1R Q122^3.32A): 12.8 ± 0.76% | EC50 (KISS1R mutants; KISS1R E193^45.52A): 10 nM | EC50 (KISS1R mutants; KISS1R H309^7.39A): 17.4 nM | EC50 (KISS1R mutants; KISS1R Q122^3.32A): 5.13 nM

Neuropeptide Y [NPY]
role of hydrogen bond of Tyr36 with Q^5.46 in activity (NPY1R and NPY4R): crucial for NPY/PP activity | role of amide-surrounding residues (C^2.57, T^2.61, Q^3.32, Q/H^7.39) in activity (NPY1R and NPY4R): critical for 26RFa and NPY/PP activities

TPDINPAWYASRGIRPVGRF-NH2 [PrRP-20, prolactin-releasing peptide]
EC50 (PrRPR (WT)): 1.1 nM | Emax (PrRPR (WT)): 100 ± 3.9% | Emax (PrRPR mutants; HEK293, PrRPR D302^6.59A): 124 ± 8.9% | Emax (PrRPR mutants; HEK293, PrRPR E213^45.52A): 27.7 ± 0.37% | Emax (PrRPR mutants; HEK293, PrRPR H321^7.39A): 19.7 ± 0.75% | Emax (PrRPR mutants; HEK293, PrRPR Q141^3.32A): 49.2 ± 1.2% | EC50 (PrRPR mutants; PrRPR D302^6.59A): 11.2 nM | EC50 (PrRPR mutants; PrRPR E213^45.52A): 115 nM | EC50 (PrRPR mutants; PrRPR H321^7.39A): 14.8 nM | EC50 (PrRPR mutants; PrRPR Q141^3.32A): 1.05 nM

pancreatic polypeptide [PP]
role of hydrogen bond of Tyr36 with Q^5.46 in activity (NPY1R and NPY4R): crucial for NPY/PP activity | role of amide-surrounding residues (C^2.57, T^2.61, Q^3.32, Q/H^7.39) in activity (NPY1R and NPY4R): critical for 26RFa and NPY/PP activities
